The results in this text go back to ChEMBL document CHEMBL2429832, “N-substituted 8-aminopentacyclo[5.4.0.0(2,6).0(3,10).0(5,9)]undecanes as σ receptor ligands with potential neuroprotective effects” (Bioorg Med Chem, 2013).

Experiment [1] deals with T1, 5-hydroxytryptamine receptor 3A (Homo sapiens) (UniProt P46098).
T1 sequence (whole entry): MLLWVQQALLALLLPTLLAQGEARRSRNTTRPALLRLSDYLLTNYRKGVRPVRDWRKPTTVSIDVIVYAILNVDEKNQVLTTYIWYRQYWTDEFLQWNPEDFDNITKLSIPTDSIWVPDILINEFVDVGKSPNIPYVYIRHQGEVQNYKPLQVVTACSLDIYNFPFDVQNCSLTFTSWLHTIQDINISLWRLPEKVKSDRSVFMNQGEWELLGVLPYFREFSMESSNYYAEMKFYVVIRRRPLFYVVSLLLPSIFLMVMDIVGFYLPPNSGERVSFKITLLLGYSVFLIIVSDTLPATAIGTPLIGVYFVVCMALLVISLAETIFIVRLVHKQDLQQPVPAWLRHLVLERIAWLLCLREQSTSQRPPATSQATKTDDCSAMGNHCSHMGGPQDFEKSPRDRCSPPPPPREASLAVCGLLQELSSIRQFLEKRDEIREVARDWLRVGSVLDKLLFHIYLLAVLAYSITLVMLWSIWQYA
As to the kind of experiment: Inhibition of 5-HT3 receptor (unknown origin) at 10 uM by PDSP assay relative to control.

In experiment [2] the target is Histamine H4 receptor (Homo sapiens, UniProt Q9H3N8). As to the kind of experiment: Inhibition of histamine H4 receptor (unknown origin) at 10 uM by PDSP assay relative to control.
Experiment [3] has as its target D(1A) dopamine receptor (Homo sapiens) (UniProt P21728). The experiment is described as follows: Inhibition of dopamine D1 receptor (unknown origin) at 10 uM by PDSP assay relative to control.
Experiment [4] addresses T2, 5-hydroxytryptamine receptor 2C (Homo sapiens) (UniProt P28335).
T2 sequence (whole entry): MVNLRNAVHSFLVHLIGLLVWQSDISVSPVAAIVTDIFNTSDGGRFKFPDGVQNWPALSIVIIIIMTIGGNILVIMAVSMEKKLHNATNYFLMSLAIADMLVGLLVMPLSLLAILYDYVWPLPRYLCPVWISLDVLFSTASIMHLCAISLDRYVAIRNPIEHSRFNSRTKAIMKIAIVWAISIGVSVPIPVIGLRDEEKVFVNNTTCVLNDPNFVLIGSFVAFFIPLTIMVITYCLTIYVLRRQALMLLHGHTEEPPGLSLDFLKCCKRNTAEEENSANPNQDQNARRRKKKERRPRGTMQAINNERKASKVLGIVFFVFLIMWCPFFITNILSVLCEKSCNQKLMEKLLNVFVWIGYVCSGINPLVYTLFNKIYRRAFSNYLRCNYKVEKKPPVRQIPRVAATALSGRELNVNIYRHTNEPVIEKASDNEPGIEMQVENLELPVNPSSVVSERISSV
As to the kind of experiment: Inhibition of 5-HT2C receptor (unknown origin) at 10 uM by PDSP assay relative to control.

Experiment [5] deals with 5-hydroxytryptamine receptor 7 (Homo sapiens, UniProt P34969). As to the kind of experiment: Inhibition of 5-HT7 receptor (unknown origin) at 10 uM by PDSP assay relative to control.
The target of experiment [6] is 5-hydroxytryptamine receptor 1E (Homo sapiens) (UniProt P28566). As to the kind of experiment: Inhibition of 5-HT1E receptor (unknown origin) at 10 uM by PDSP assay relative to control.
Experiment [7] addresses Histamine H3 receptor (Homo sapiens, UniProt Q9Y5N1). As to the kind of experiment: Inhibition of histamine H3 receptor (unknown origin) at 10 uM by PDSP assay relative to control.
For experiment [8], the target named is 5-hydroxytryptamine receptor 2B (Homo sapiens, UniProt P41595). The experiment is described as follows: Inhibition of 5-HT2B receptor (unknown origin) at 10 uM by PDSP assay relative to control.
In experiment [9] the target is 5-hydroxytryptamine receptor 5A (Homo sapiens, UniProt P47898). The experiment is described as follows: Inhibition of 5-HT5A receptor (unknown origin) at 10 uM by PDSP assay relative to control.
Experiment [10] addresses 5-hydroxytryptamine receptor 1B (Homo sapiens, UniProt P28222). The experiment is described as follows: Inhibition of 5-HT1B receptor (unknown origin) at 10 uM by PDSP assay relative to control.
The target in experiment [11] is Sigma non-opioid intracellular receptor 1 (Rattus norvegicus, UniProt Q9R0C9). As to the kind of experiment: Displacement of [3H](+)-pentazocine from sigma-1 receptor in rat brain homogenates. Type of experiment: tissue-based.
Experiment [12] deals with Sodium-dependent noradrenaline transporter (Homo sapiens, UniProt P23975). As to the kind of experiment: Displacement of [3H]-nisoxetine from human NET expressed in HEK cell membranes at 10 uM relative to control. The settings on record: HEK293.
Experiment [13] has as its target 5-hydroxytryptamine receptor 6 (Homo sapiens, UniProt P50406). As to the kind of experiment: Inhibition of 5-HT6 receptor (unknown origin) at 10 uM by PDSP assay relative to control.
Experiment [14] concerns the target Beta-3 adrenergic receptor (Homo sapiens) (UniProt P13945). As to the kind of experiment: Inhibition of adrenergic beta3 receptor (unknown origin) at 10 uM by PDSP assay relative to control.
The target of experiment [15] is T3, D(4) dopamine receptor (Homo sapiens) (UniProt P21917).
T3 sequence (whole entry): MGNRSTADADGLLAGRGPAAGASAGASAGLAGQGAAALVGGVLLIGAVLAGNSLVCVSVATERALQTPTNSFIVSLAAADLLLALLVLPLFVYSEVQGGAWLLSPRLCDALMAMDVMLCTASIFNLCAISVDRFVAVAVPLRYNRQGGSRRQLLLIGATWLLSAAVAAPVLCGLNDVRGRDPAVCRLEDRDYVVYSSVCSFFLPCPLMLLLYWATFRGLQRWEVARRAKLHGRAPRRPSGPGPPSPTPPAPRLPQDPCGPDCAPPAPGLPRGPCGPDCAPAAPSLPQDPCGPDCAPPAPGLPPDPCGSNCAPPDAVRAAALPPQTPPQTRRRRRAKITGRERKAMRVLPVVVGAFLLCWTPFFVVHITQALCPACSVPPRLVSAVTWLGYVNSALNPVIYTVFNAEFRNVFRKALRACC
The experiment is described as follows: Inhibition of dopamine D4 receptor (unknown origin) at 10 uM by PDSP assay relative to control.

Chain of Beta-3 adrenergic receptor (Homo sapiens) (P13945 whole entry, looked up): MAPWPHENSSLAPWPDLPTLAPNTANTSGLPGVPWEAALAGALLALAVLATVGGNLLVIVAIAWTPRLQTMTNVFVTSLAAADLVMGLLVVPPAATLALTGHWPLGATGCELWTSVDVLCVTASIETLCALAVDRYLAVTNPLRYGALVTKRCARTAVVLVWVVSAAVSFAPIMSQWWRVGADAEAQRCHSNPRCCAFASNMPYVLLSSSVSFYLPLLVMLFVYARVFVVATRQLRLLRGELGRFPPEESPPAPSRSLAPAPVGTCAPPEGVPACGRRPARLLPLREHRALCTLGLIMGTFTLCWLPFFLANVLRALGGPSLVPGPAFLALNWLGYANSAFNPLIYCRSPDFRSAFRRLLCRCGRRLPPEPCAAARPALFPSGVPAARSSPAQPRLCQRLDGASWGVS
Chain of Histamine H4 receptor (Q9H3N8 whole entry): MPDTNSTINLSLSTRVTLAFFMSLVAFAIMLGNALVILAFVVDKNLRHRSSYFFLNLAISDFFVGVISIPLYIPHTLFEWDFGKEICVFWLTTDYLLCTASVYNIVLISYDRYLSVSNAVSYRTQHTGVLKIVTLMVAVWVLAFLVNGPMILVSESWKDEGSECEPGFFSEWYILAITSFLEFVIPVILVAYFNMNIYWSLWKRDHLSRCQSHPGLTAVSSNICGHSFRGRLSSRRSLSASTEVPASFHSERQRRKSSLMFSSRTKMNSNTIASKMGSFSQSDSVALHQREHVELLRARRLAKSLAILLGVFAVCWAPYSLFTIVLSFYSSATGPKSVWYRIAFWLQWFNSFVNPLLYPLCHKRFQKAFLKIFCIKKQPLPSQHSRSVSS
Chain of Histamine H3 receptor (Q9Y5N1 whole entry): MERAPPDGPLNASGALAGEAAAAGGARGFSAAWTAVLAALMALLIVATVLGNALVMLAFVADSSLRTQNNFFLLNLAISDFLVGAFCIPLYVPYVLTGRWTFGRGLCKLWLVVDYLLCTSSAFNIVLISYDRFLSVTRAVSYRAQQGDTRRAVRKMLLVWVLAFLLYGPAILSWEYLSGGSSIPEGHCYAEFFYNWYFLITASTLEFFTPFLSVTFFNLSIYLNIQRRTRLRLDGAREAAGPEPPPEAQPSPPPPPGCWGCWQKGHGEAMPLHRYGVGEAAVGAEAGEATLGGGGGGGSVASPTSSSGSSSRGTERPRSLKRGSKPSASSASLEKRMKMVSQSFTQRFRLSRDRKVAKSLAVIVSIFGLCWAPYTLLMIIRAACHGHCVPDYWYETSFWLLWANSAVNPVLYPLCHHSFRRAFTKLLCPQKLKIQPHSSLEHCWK
Chain of D(1A) dopamine receptor (Homo sapiens) (P21728 whole entry): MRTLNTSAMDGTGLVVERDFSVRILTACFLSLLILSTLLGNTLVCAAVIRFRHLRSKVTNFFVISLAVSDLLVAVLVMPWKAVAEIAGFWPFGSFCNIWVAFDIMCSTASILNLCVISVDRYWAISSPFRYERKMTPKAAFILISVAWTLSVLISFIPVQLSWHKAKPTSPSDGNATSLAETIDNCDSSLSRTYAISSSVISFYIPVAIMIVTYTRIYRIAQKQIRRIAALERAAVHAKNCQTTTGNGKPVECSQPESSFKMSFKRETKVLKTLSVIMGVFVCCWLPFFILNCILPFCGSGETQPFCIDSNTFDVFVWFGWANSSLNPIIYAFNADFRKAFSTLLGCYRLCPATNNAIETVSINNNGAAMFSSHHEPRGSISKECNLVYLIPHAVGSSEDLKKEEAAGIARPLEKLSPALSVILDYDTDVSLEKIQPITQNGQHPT
Chain of 5-hydroxytryptamine receptor 1B (P28222 whole entry): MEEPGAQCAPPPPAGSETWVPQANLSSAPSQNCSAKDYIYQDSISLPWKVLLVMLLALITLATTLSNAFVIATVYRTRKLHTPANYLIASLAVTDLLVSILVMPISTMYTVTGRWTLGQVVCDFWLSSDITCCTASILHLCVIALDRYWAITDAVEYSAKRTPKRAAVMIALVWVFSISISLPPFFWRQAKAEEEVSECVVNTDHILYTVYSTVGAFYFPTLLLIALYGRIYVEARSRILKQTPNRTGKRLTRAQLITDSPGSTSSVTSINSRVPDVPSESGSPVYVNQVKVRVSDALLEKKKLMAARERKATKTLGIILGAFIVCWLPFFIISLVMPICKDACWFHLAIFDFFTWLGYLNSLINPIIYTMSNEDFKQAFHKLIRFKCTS
Chain of 5-hydroxytryptamine receptor 6 (P50406 whole entry): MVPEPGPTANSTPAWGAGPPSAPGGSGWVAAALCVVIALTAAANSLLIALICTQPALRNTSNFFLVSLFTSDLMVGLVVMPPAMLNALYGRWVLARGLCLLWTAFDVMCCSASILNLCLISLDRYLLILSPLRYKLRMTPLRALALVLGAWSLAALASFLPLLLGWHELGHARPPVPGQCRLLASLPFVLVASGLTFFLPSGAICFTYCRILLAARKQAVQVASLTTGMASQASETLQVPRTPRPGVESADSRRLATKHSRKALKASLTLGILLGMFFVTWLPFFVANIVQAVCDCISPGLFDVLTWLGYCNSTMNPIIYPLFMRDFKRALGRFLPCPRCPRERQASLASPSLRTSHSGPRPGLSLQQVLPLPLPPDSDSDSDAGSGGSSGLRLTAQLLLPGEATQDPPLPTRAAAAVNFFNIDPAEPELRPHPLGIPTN
Chain of 5-hydroxytryptamine receptor 5A (P47898 whole entry): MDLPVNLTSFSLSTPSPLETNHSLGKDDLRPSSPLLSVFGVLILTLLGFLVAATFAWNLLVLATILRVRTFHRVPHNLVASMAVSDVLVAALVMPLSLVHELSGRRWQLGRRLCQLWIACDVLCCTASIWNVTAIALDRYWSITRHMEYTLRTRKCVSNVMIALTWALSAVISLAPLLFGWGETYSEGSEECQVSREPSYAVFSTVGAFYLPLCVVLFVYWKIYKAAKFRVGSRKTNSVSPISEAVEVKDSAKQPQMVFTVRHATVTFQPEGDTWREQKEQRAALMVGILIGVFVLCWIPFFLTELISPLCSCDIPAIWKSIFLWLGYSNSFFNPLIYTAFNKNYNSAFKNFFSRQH
Chain of 5-hydroxytryptamine receptor 7 (P34969 whole entry): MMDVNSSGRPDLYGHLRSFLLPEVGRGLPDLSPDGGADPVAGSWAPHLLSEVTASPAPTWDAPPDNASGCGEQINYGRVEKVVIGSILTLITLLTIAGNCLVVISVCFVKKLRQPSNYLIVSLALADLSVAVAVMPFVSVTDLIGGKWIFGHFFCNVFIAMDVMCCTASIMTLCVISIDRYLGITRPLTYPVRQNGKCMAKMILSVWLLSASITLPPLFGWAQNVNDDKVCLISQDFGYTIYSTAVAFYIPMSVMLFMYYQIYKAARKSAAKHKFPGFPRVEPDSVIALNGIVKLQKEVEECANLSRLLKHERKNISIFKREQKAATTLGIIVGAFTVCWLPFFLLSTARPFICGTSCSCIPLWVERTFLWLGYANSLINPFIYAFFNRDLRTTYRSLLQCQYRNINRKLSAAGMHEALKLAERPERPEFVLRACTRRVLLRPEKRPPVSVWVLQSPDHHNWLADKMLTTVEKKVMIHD
Chain of 5-hydroxytryptamine receptor 1E (Homo sapiens) (P28566 whole entry): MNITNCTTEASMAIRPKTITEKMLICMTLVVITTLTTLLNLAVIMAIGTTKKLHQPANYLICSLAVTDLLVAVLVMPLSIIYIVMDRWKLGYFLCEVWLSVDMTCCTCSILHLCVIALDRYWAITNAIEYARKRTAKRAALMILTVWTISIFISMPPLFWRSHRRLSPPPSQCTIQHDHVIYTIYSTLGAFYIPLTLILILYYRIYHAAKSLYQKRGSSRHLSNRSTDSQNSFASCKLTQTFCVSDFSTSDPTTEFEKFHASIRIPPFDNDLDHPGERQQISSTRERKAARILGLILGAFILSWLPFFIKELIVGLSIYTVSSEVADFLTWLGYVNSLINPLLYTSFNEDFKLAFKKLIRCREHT
Chain of 5-hydroxytryptamine receptor 2B (P41595 whole entry): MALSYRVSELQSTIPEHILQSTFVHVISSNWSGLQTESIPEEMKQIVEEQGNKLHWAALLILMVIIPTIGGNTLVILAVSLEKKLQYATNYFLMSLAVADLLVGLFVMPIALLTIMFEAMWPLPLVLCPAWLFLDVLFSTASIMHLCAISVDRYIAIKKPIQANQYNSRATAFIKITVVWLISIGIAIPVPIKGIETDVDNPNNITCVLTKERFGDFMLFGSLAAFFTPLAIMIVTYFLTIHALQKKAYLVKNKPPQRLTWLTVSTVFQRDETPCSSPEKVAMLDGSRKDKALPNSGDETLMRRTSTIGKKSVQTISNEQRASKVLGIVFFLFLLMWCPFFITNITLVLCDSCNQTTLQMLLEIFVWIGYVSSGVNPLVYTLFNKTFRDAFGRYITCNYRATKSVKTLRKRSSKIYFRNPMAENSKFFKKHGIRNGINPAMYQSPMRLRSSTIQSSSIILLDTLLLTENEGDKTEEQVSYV
Chain of Sodium-dependent noradrenaline transporter (P23975 whole entry): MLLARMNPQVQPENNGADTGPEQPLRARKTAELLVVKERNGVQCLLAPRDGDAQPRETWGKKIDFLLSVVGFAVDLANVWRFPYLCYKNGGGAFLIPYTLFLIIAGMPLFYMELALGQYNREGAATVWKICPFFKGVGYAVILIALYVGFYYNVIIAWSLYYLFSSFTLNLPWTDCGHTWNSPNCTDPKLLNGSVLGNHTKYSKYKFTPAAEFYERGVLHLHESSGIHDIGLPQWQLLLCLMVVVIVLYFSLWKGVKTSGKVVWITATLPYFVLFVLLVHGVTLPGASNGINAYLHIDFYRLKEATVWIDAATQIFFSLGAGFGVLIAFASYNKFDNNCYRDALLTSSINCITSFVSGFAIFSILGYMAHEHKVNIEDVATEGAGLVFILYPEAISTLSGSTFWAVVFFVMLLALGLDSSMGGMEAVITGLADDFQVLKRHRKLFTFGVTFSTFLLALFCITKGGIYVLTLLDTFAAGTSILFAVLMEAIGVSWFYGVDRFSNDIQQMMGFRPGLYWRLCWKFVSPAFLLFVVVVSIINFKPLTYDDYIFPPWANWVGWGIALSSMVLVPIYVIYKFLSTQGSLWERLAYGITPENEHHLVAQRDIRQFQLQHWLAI

On to `CN(Cc1ccccc1)[C@H]1C2C3CC4C5C3CC2C5C41` (stereo partly specified), for which the inhibition in experiment [1], in experiment [2], in [3], in [4], in experiment [5] and in experiment [6] was less than 50% in each case. For the same compound, the inhibition in experiment [7], in [8], in experiment [9], in experiment [10], in experiment [12] and in experiment [13] was less than 50% throughout. Moreover, the inhibition in [14] and in [15] was less than 50% throughout. The Ki in experiment [11] was determined as 0.77 µM.
As to `COc1cc(CN(C)[C@H]2C3C4CC5C6C4CC3C6C52)cc(OC)c1OC` (stereo partly specified), the inhibition in [1], in [2], in experiment [3], in experiment [4], in [5] and in [6] was less than 50% throughout. The inhibition in [7], in experiment [8], in experiment [9], in experiment [10], in experiment [12] and in experiment [13] was less than 50% each time. For the same compound, the inhibition in [14] and in [15] was less than 50% each time. The compound further displayed a Ki in [11] of 1.22 µM.
On to `c1ccc(CCN[C@H]2C3C4CC5C6C4CC3C6C52)nc1` (stereo partly specified), for which the inhibition in experiment [1], in experiment [3], in experiment [4], in [5], in experiment [6] and in experiment [7] was less than 50% throughout. In addition, the inhibition in experiment [8], in [9], in experiment [10], in experiment [12] and in experiment [14] was less than 50% throughout. Further, affinity in experiment [11] was put at a Ki of 0.0215 µM.
As for `c1ccc(CCN[C@H]2C3C4CC5C6C4CC3C6C52)cc1` (stereo partly specified), the inhibition in experiment [1], in [2], in [3], in experiment [4], in experiment [5] and in experiment [6] was less than 50% in each case. Besides, the inhibition in experiment [7], in experiment [8], in experiment [9], in experiment [12], in [13] and in experiment [14] was less than 50% throughout. In addition, the Ki in [11] came out at 0.049 µM.
For `COc1ccc(CN[C@H]2C3C4CC5C6C4CC3C6C52)cc1OC` (stereo partly specified), the inhibition in [1], in [2], in experiment [3], in [4], in [5] and in experiment [6] was less than 50% each time. Besides, the inhibition in experiment [7], in [8], in experiment [9], in experiment [10], in experiment [12] and in experiment [14] was less than 50% each time. In experiment [15], the inhibition was less than 50%. In experiment [11], this compound showed a Ki of 0.094 µM.
In the case of `CN(CCc1ccccc1)[C@H]1C2C3CC4C5C3CC2C5C41` (stereo partly specified), the inhibition in experiment [1], in [2], in experiment [3], in [4], in [6] and in experiment [7] was less than 50% throughout. Besides, the inhibition in [9], in experiment [10], in [12], in [13], in [14] and in experiment [15] was less than 50% throughout. Also, the Ki in experiment [11] was 0.773 µM.
For `COc1cc(CN[C@H]2C3C4CC5C6C4CC3C6C52)cc(OC)c1OC` (stereo partly specified), the inhibition in [1], in experiment [2], in experiment [3], in experiment [4], in experiment [5] and in experiment [6] was less than 50% throughout. The inhibition in experiment [7], in [9], in experiment [10], in [12], in experiment [13] and in experiment [14] was less than 50% throughout. This compound also gave an inhibition in experiment [15] of less than 50%. The compound also registered a Ki in experiment [11] of 1.01 µM.
For the compound `CN(CCCc1cccc(F)c1)[C@H]1C2C3CC4C2C(=O)C2C4C3C21` (stereo partly specified), the inhibition in experiment [1], in experiment [2], in [3], in experiment [4], in experiment [5] and in experiment [6] was less than 50% in each case. The inhibition in experiment [8], in [9], in [10], in experiment [13], in experiment [14] and in [15] was less than 50% each time. Besides, in [11], affinity was put at a Ki of 0.133 µM.
Consider `c1cc2c(cc1CN[C@H]1C3C4CC5C6C4CC3C6C51)OCO2` (stereo partly specified), for which the inhibition in experiment [1], in experiment [2], in experiment [3], in experiment [4], in experiment [5] and in [6] was less than 50% each time. In addition, the inhibition in experiment [7], in experiment [8], in [10], in experiment [13], in experiment [14] and in experiment [15] was less than 50% each time. This compound registered a Ki in experiment [11] of 0.017 µM.
`C1C2C3CC4C2C2C1C3[C@H](NCC13C5C6C7C5C1C7C63)C42` (stereo partly specified): the inhibition in experiment [1], in [2], in experiment [3], in experiment [4], in [5] and in experiment [6] was less than 50% each time. Further, the inhibition in [7], in experiment [8], in experiment [10], in experiment [12], in experiment [13] and in experiment [14] was less than 50% throughout. The inhibition in experiment [15] is less than 50%. In experiment [11], the affinity corresponds to a Ki of 0.003 µM.
